From patent publication US20040077607A1 (priority 2002, published 2004)
Values joined by “and” are separate entries in the source; they are usually repeats but may differ in a detail not shown here. Equal entries are not always repeated. Where two headings read alike, the source gives them in different places.

Key:
[1] = after i.v. 40 mg/kg d4T, Balb/c mice, plasma; mean ± S.E.M. (in parentheses)
[2] = after oral 100 mg/kg d4T-5′-[p-bromophenyl methoxyalaninyl phosphate], Balb/c mice, plasma; mean ± S.E.M. (in parentheses)
[3] = 37° C.
[4] = in vivo; details: female, Balb/c, mouse, po, 100 mg/kg, Balb/c mice, plasma; for AUC / Cmax / Tmax: after oral 100 mg/kg d4T-5′-[p-bromophenyl methoxyalaninyl phosphate]; for half-life: t1/2, after oral 100 mg/kg d4T-5′-[p-bromophenyl methoxyalaninyl phosphate]
[5] = not given; remark: listed apart in the source
[6] = in vivo; details: female, Balb/c, mouse, iv, 100 mg/kg
[7] = simulated intestinal fluid, 100 μM, 37° C.
[8] = in vivo; details: female, Balb/c, mouse, iv, 75 mg/kg, Balb/c mice, plasma; for AUC / clearance / Cmax / Vd: after i.v. 75 mg/kg Ala-d4T-MP; for clearance: CL; for Vd: Vss; for half-life: t1/2, after i.v. 75 mg/kg Ala-d4T-MP
[9] = 100 μM, mouse liver homogenate
[10] = female, Balb/c, mouse, in vivo, iv
[11] = in vivo; cited from earlier work
[12] = dog, in vivo; cited from earlier work
[13] = for mean percent hydrolysis in plasma: 250 μM
[14] = mouse, in vivo; cited from earlier work
[15] = rat, in vivo; cited from earlier work
[16] = tested on: Josiach strain of Lassa Virus; design: species or system CBA mice; details: mouse, in vivo
[17] = model fit after i.v. 75 mg/kg Ala-d4T-MP, C.V. of modeling in parentheses, 75 mg/kg
[18] = estimate from composite pooled data

SMILES: Cc1cn([C@H]2C=C[C@@H](CO)O2)c(=O)[nH]c1=O [d4T, 2′,3′-didehydro-2′,3′-dideoxythymidine]
- AUC [1]: (12173.6 ± 559.5) μM · min
- AUC [2]: (5928.4 ± 294.6) μM · min
- Cmax [2]: 29.5 µM
- Tmax [2]: (45.2 ± 5.2) min
- t1/2 [2]: (102.6 ± 3.8) min
- Tmax (after i.v. 75 mg/kg Ala-d4T-MP, Balb/c mice, plasma, mean ± S.E.M. (in parentheses)): (5.0 ± 1.2) min
- CLme (elimination of d4T derived from Ala-d4T-MP) [17]: 88.4 ml/min/kg and 88.4 (13.0%) ml/min/kg

SMILES: Cc1cn([C@H]2C=C[C@@H](COP(=O)(O)N[C@@H](C)C(=O)O)O2)c(=O)[nH]c1=O [Ala-d4T-MP, alaninyl-d4T-monophosphate]
- stability in whole blood ([3]; 100 μM, for 1 day): stable
- AUC [4, 18]: 22.5 µM·h
- AUC ([4]; mean ± S.E.M. (in parentheses)): 22.6 µM·h
- Cmax [4, 18]: 12.7 µM
- Cmax ([4]; mean ± S.E.M. (in parentheses)): 15.6 µM
- half-life [4, 18]: 66.4 min
- half-life ([4]; mean ± S.E.M. (in parentheses)): 56.1 min
- Tmax [4, 18]: 10.3 min
- Tmax ([4]; mean ± S.E.M. (in parentheses)): 9.3 min
- stability in plasma ([5]; 100 μM, for 1 day): stable
- AUC ([6]; AUC): 47.6 µM·h
- Cmax ([6]; Cmax): 67.4 µM
- half-life ([6]; t1/2): 129 min
- Tmax ([6]; tmax): 5.9 min
- stability in intestinal fluid [7]: stable
- AUC [8, 18]: 194 µM·h
- AUC ([8]; mean ± S.E.M. (in parentheses)): 196 µM·h
- clearance [8, 18]: 15.8 mL/min/kg
- clearance ([8]; mean ± S.E.M. (in parentheses)): 15.7 mL/min/kg
- Cmax [8, 18]: 1210 µM
- Cmax ([8]; mean ± S.E.M. (in parentheses)): 1660 µM
- Vd [8, 18]: 0.276 L/kg
- Vd ([8]; mean ± S.E.M. (in parentheses)): 0.413 L/kg
- half-life [8, 18]: 28.5 min
- half-life ([8]; mean ± S.E.M. (in parentheses)): 91.5 min
- CLm1 as share of the total systemic clearance (after i.v. 75 mg/kg Ala-d4T-MP): 99%
- fraction converted to d4T (after intravenous administration of Ala-d4T-MP): 15%
- CLml (metabolic clearance of Ala-d4T-MP / formation clearance of d4T) [17]: 15.6 ml/min/kg and 15.6 (16.6%) ml/min/kg
- CLpd (distribution of Ala-d4T-MP to the extravascular compartment) [17]: 4.7 ml/min/kg and 4.7 (44.7%) ml/min/kg

SMILES: COC(=O)C(C)NP(=O)(OC[C@@H]1C=C[C@H](n2cc(C)c(=O)[nH]c2=O)O1)Oc1ccc(Br)cc1 (stereo partly drawn) [d4T-5′-[p-bromophenylmethoxyalaninyl phosphate]]
- stability in whole blood ([3]; 250 μM): very unstable
- time to complete decomposition in whole blood ([3]; 250 μM): ≤ 30 min
- decomposed in whole blood ([3]; 250 μM, 5 minutes): 68%
- decomposed in whole blood ([3]; 250 μM, 10 minutes): 87%
- decomposed in whole blood ([3]; 250 μM, 15 minutes): 92%
- time to decomposition after incubation with liver homogenate [9]: ≤ 30 min
- fraction converted to Ala-d4T-MP [10]: 23%
- fraction converted to d4T [10]: 24%
- tolerability [11]: very well tolerated
- tolerability [12]: very well tolerated
- mean percent hydrolysis in plasma ([13]; EDTA (1 mM; arylesterase), 5 min): 99%
- mean percent hydrolysis in plasma ([13]; EDTA (1 mM; arylesterase), 10 min): 100%
- mean percent hydrolysis in plasma ([13]; EDTA (1 mM; arylesterase), 15 min): 100%
- mean percent hydrolysis in plasma ([13]; EDTA (1 mM; arylesterase), 30 min): 100%
- mean percent hydrolysis in plasma ([13]; EDTA (1 mM; arylesterase), 60 min): 100%
- mean percent hydrolysis in plasma ([13]; EDTA (1 mM; arylesterase), 120 min): 100%
- decomposition in plasma, effect of EDTA ([13]; EDTA, 37° C.): not affected
- mean percent hydrolysis in plasma ([13]; No inhibitor, 5 min): 95%
- mean percent hydrolysis in plasma ([13]; No inhibitor, 10 min): 98%
- mean percent hydrolysis in plasma ([13]; No inhibitor, 15 min): 99%
- mean percent hydrolysis in plasma ([13]; No inhibitor, 30 min): 100%
- mean percent hydrolysis in plasma ([13]; No inhibitor, 60 min): 100%
- mean percent hydrolysis in plasma ([13]; No inhibitor, 120 min): 100%
- mean percent hydrolysis in plasma ([13]; Physostigmine (0.1 mM; cholinesterase), 5 min): 43%
- mean percent hydrolysis in plasma ([13]; Physostigmine (0.1 mM; cholinesterase), 10 min): 65%
- mean percent hydrolysis in plasma ([13]; Physostigmine (0.1 mM; cholinesterase), 15 min): 76%
- mean percent hydrolysis in plasma ([13]; Physostigmine (0.1 mM; cholinesterase), 30 min): 89%
- mean percent hydrolysis in plasma ([13]; Physostigmine (0.1 mM; cholinesterase), 60 min): 100%
- mean percent hydrolysis in plasma ([13]; Physostigmine (0.1 mM; cholinesterase), 120 min): 100%
- decomposition in plasma, effect of physostigmine ([13]; physostigmine 0.1 mM, 37° C.): partially inhibited
- acute or subacute toxicity [14]: very well tolerated without any detectable acute or subacute toxicity
- toxicity on daily administration [14]: not associated with any detectable toxicity
- acute or subacute toxicity [15]: very well tolerated without any detectable acute or subacute toxicity
- toxicity on daily administration [15]: not associated with any detectable toxicity
- stability in plasma ([5]; 250 μM): very unstable
- time to complete decomposition in plasma ([5]; 250 μM): ≤ 30 min
- decomposed following incubation with plasma ([5]; 250 μM, after 5 minutes): over 95%
- decomposed in intestinal fluid ([7]; within 2 hours): approximately 94%
- median survival [16]: > 21 days
- mice remaining healthy beyond the 21-day observation period [16]: 9 mice
- mice surviving beyond the 21 day observation period [16]: 6 mice
- probability of survival at 21 days [16]: 75% and 90%
